PubChem BioAssay AID1919007 (Molecular Pharmacology Branch, DTP, NCI, 2023)

Test system: A498 complex spheroids with HUVEC/MSC, growth
Experiment: Anticancer human tumor A498 cell line growth inhibition [AhR];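 also: seven day exposure starting three days after spheroid seeding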;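 as to viability, T/C: luminescence signal used as a surrogate for viable cells; luminescence viability scaled so 100% equals DMSO vehicle wells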
Settings: for IC50: curve of first compound; for viability, T/C: stronger effect = lower value
Source text: Multicellular complex tumor spheroid response to aryl hydrocarbon receptor antagonists in combination with a variety of drugs and investigational agents in selected tumor cell lines
The current study was undertaken to assess response to aryl hydrocarbon receptor antagonists in combination with standard-of-care drugs and investigational agents in solid tumor complex spheroid models. Complex spheroids include a stromal component modeled by human endothelial cells (HUVEC) and fibroblasts modeled by human mesenchymal stem cells (MSCs). The concentration ranges selected for each drug and investigational agent were based upon clinically achievable concentrations if the clinical Cmax of the agent was known.
Compounds. The drugs and investigational agents: BAY 2416964 (NSC825713), GNF351 (NSC835774), CH-223191 (NSC835775), CPI-455 (NSC825282), aza-TdCyd (NSC777586), decitabine (NSC127716), belinostat (NSC758774), entinostat (NSC756642), pevonedistat (NSC761192), tazemetostat (NSC777109), talazoparib (NSC765396), olaparib (NSC753686), selinexor (NSC780203), nedisertib (M3814, NSC802822), bortezomib (NSC756655), venetoclax (NSC766270), doxorubicin (NSC123127), elimusertib (BAY189344, NSC800525), ceralasertib (AZD6738, NSC777638), TAK-243 (NSC785004), alisertib (NSC759677), etoposide (NSC141540), topotecan (NSC609699), eribulin (NSC707389), gemcitabine (NSC613327), carboplatin (NSC241240), cisplatin (NSC119875), and SN-38 (NSC673596) were obtained from the National Cancer Institute (NCI) Developmental Therapeutics Program Chemical Repository (32). The FDA-approved anticancer drug set is available from the Developmental Therapeutics Program at https://dtp.cancer.gov/organization/dscb/obtaining/available plates.htm. […] The stock solutions were prepared in dimethyl sulfoxide (DMSO, Sigma-Aldrich, St. Louis, MO, cat. D2650), except for the platinum compounds which were prepared in saline (Quality Biological, Gaithersburg, MD, cat. 114-055-101), at 800-fold the tested concentration and stored at -70 degrees C prior to their use. All drugs and investigational agents were tested over a range starting from a high concentration at or near the clinical Cmax and decreasing in half-log increments. If the clinical Cmax for an agent had not been determined, the highest concentration tested was 10 microM (Table 1).
Cell Culture. All cells were maintained in an incubator at 37 degrees C and 5% CO2 with 95% humidity. The PDC lines were cultured according to standard operating procedures established by the NCI PDMR (https://pdmr.cancer.gov). Briefly, all PDCs were thawed and cultured in Matrigel-coated flasks prepared with a working solution of 1X Ham's F-12 nutrient mix, without supplementation (Invitrogen, Waltham, MA, cat. 11765054), 100 U/mL penicillin-streptomycin (Invitrogen, cat. 15140122), and 2.5% Matrigel (Corning Inc., Corning, NY, cat. 354248) for the first three passages. All PDCs were cultured in complete DMEM/F-12 media containing advanced DMEM/F-12 (Invitrogen, cat. 12634028), 4.9% defined fetal bovine serum, heat inactivated (HyClone Laboratories Inc., Logan, UT, cat. SH30070.03HI), 389 ng/mL hydrocortisone (Sigma-Aldrich, cat. H4001), 9.7 ng/mL human EGF recombinant protein (Invitrogen, cat. PHG0313), 23.4 microg/mL adenine (Sigma-Aldrich, cat. A2786), 97.3 U/mL penicillin-streptomycin (Invitrogen, cat. 15140122), 1.9 mM L-glutamine (Invitrogen, cat. 25030081), and 9.7 microM Y-27632 dihydrochloride (Tocris Bioscience, Bristol, United Kingdom, cat. 1254). The PDCs were cultured in complete DMEM/F12 media without 10 microM Y-27632 dihydrochloride for at least two passages prior to the screen. The established cell lines NCI-H1341 and […] were cultured in DMEM/F-12, HEPES (Invitrogen, cat. 11330032), 5% defined fetal bovine serum (HyClone Laboratories Inc., cat. SH30070.03), ITS premix universal culture supplement [insulin (5 microg/mL), transferrin (5 microg/mL), and selenious acid (5 ng/mL)] […]

[1] = second compound 0.1 µM, first compound 0.00316 µM
[2] = second compound 0.1 µM, first compound 0.01 µM
[3] = second compound 0.1 µM, first compound 0.0316 µM
[4] = second compound 0.1 µM, first compound 0.1 µM
[5] = second compound 0.316 µM, first compound 0.00316 µM
[6] = second compound 0.316 µM, first compound 0.01 µM
[7] = second compound 0.316 µM, first compound 0.0316 µM
[8] = second compound 0.316 µM, first compound 0.1 µM
[9] = second compound 1 µM, first compound 0.00316 µM
[10] = second compound 1 µM, first compound 0.01 µM
[11] = second compound 1 µM, first compound 0.0316 µM
[12] = second compound 1 µM, first compound 0.1 µM
[13] = second compound 3.16 µM, first compound 0.00316 µM
[14] = second compound 3.16 µM, first compound 0.01 µM
[15] = second compound 3.16 µM, first compound 0.0316 µM
[16] = second compound 3.16 µM, first compound 0.1 µM
[17] = second compound 10 µM, first compound 0.00316 µM
[18] = second compound 10 µM, first compound 0.01 µM
[19] = second compound 10 µM, first compound 0.0316 µM
[20] = second compound 10 µM, first compound 0.1 µM
[21] = second compound 0.1 µM, first compound 0.316 µM
[22] = second compound 0.1 µM, first compound 1 µM
[23] = second compound 0.316 µM, first compound 0.316 µM
[24] = second compound 0.316 µM, first compound 1 µM
[25] = second compound 1 µM, first compound 0.316 µM
[26] = second compound 1 µM, first compound 1 µM
[27] = second compound 3.16 µM, first compound 0.316 µM
[28] = second compound 3.16 µM, first compound 1 µM
[29] = second compound 10 µM, first compound 0.316 µM
[30] = second compound 10 µM, first compound 1 µM

Structure (SMILES) | IC50 (second compound 0.1 µM) [nM] | IC50 (second compound 0.316 µM) [nM] | IC50 (second compound 1 µM) [nM] | IC50 (second compound 3.16 µM) [nM] | IC50 (second compound 10 µM) [nM] | viability, T/C [1] [%] | viability, T/C [2] [%] | viability, T/C [3] [%] | viability, T/C [4] [%] | viability, T/C [5] [%] | viability, T/C [6] [%] | viability, T/C [7] [%] | viability, T/C [8] [%] | viability, T/C [9] [%] | viability, T/C [11] [%] | viability, T/C [12] [%] | viability, T/C [15] [%] | viability, T/C [16] [%] | viability, T/C [19] [%] | viability, T/C [20] [%] | other results
CC[C@@]1(O)C(=O)OCc2c1cc1n(c2=O)Cc2cc3c(CN(C)C)c(O)ccc3nc2-1 + CC(CO)NC(=O)c1cc(-c2ccc(Cl)cc2)nn(-c2cnn(C)c2)c1=O | > 100 | > 100 | > 100 | > 100 | 75.7 | 103 | 94.6 | 86.7 | 68.2 | 96.4 | 82.4 | 81.3 | 64.8 | 100 | 76.9 | 65.3 | 71.2 | 60.1 | 57.1 | 47.7 | viability, T/C (second compound 0.1 µM, first compound 0.000316 µM): 105%; viability, T/C (second compound 0.1 µM, first compound 0.001 µM): 98.4%; viability, T/C (second compound 0.316 µM, first compound 0.000316 µM): 93.2%; viability, T/C (second compound 0.316 µM, first compound 0.001 µM): 102%; viability, T/C (second compound 1 µM, first compound 0.000316 µM): 95.8%; viability, T/C (second compound 1 µM, first compound 0.001 µM): 106%; viability, T/C [10]: 92.2%; viability, T/C (second compound 3.16 µM, first compound 0.000316 µM): 92%; viability, T/C (second compound 3.16 µM, first compound 0.001 µM): 87%; viability, T/C [13]: 88.6%; viability, T/C [14]: 71.1%; viability, T/C (second compound 10 µM, first compound 0.000316 µM): 77%; viability, T/C (second compound 10 µM, first compound 0.001 µM): 74.2%; viability, T/C [17]: 76.6%; viability, T/C [18]: 63.1%
COc1cc(C2c3cc4c(cc3C(OC3OC5COC(C)OC5C(O)C3O)C3COC(=O)C23)OCO4)cc(OC)c1O (stereo not given) + CC(CO)NC(=O)c1cc(-c2ccc(Cl)cc2)nn(-c2cnn(C)c2)c1=O | 2970 | 2080 | 1560 | 1080 | 400 | – | – | 74.1 | 81.2 | – | – | 74.2 | 73.1 | – | 66.7 | 77 | 64.4 | 66.7 | 49.3 | 57.7 | viability, T/C [21]: 69.4%; viability, T/C [22]: 57.7%; viability, T/C (second compound 0.1 µM, first compound 3.16 µM): 52.5%; viability, T/C (second compound 0.1 µM, first compound 10 µM): 42.2%; viability, T/C [23]: 68%; viability, T/C [24]: 52.9%; viability, T/C (second compound 0.316 µM, first compound 3.16 µM): 49.8%; viability, T/C (second compound 0.316 µM, first compound 10 µM): 40.1%; viability, T/C [25]: 71.3%; viability, T/C [26]: 53.3%; viability, T/C (second compound 1 µM, first compound 3.16 µM): 47.3%; viability, T/C (second compound 1 µM, first compound 10 µM): 40.3%; viability, T/C [27]: 64.5%; viability, T/C [28]: 50.2%; viability, T/C (second compound 3.16 µM, first compound 3.16 µM): 41.9%; viability, T/C (second compound 3.16 µM, first compound 10 µM): 38.2%; viability, T/C [29]: 53.3%; viability, T/C [30]: 37.9%; viability, T/C (second compound 10 µM, first compound 3.16 µM): 37.3%; viability, T/C (second compound 10 µM, first compound 10 µM): 30.7%
Nc1ncn(C2CC(O)C(CO)O2)c(=O)n1 (stereo not given) + CC(CO)NC(=O)c1cc(-c2ccc(Cl)cc2)nn(-c2cnn(C)c2)c1=O | > 1000 | > 1000 | > 1000 | > 1000 | > 1000 | 96.1 | 91.9 | 88 | 76.1 | 83.7 | 97.2 | 86.2 | 78.2 | 88.3 | 88.4 | 75.1 | 84 | 70.7 | 67 | 55.8 | viability, T/C [21]: 77.8%; viability, T/C [22]: 66.7%; viability, T/C [23]: 76%; viability, T/C [24]: 66.9%; viability, T/C [10]: 87%; viability, T/C [25]: 75.4%; viability, T/C [26]: 67%; viability, T/C [13]: 79.7%; viability, T/C [14]: 85.7%; viability, T/C [27]: 67.1%; viability, T/C [28]: 59.2%; viability, T/C [17]: 62%; viability, T/C [18]: 67.1%; viability, T/C [29]: 52.8%; viability, T/C [30]: 53.6%
